Data on 1 sequence can be found in publication PMC4585333, “Novel Regulator of Acylated Ghrelin, CF801, Reduces Weight Gain, Rebound Feeding after a Fast, and Adiposity in Mice” (Frontiers in Endocrinology, 2015).

“Also recorded” adds a separate entry of the source.

The subject of assay [1] is stomach-derived ghrelinoma (SG-1) cells. Description: Cell-based ghrelin secretion assay (acyl ghrelin in medium, ELISA). The protocol: Ghrelin secretion studies were performed in stomach-derived ghrelinoma (SG-1) cells, cultured as described previously ([61], [62]). Cells were plated at a density of 5 × 10^4 cells/mL/well on to 24-well plates pre-coated with poly-D-lysine (day 0). On day 2, the cells were treated with the indicated concentrations of test compound CF801, 24 h ahead of the test period and with 50 μM sodium octanoate–bovine serum albumin (BSA), 16 h ahead of the test period. On day 3, the medium was aspirated and the cells were treated with the same concentrations of CF801 in 500 μL serum-free DMEM (Life Technologies, Grand Island, NY, USA) supplemented with 5 mM glucose and 50 μM sodium octanoate–BSA. After a 6-h incubation, the medium was collected, placed on ice, and immediately centrifuged at 800 × g for 5 min. Hydrochloric acid was added to the supernatant to achieve a final concentration of 0.1 N (for stabilization of acyl ghrelin) and stored at −80°C until analysis. Assay for acyl ghrelin and total were performed using commercial ELISA kits (EMD Millipore Corporation, Billerica, MA, USA) according to the manufacturer’s instructions and read in a PowerWave XS Microplate spectrophotometer (BioTek Instruments, Inc., Winooski, VT, USA).
SG-1 cells are derived from stomach ghrelinomas induced by expression of the SV40 large T-antigen under the preproghrelin promoter. These cells retain many of the features of ghrelin cells within primary cultures of gastric mucosal cells from mice ([61]). They also show elevated expression of both preproghrelin and GOAT mRNA with high levels of acylated ghrelin synthesis and secretion ([61]). In order to test CF801’s ability to reduce acyl ghrelin secretion, we performed an in vitro cell-based assay using an SG-1 cell line as previously described ([61], [62]).
Figure 1 CF801 inhibits acyl ghrelin secretion from SG-1 cells following 24 h of incubation. […] All values are expressed as mean ± SEM. *p < 0.05, ***p < 0.001 significant difference in acyl ghrelin concentrations with CF801 treatment when compared to untreated control (n = 6 wells).
In general terms: In an ELISA, binding on a coated surface is turned into a signal by an enzyme label.

Assay [2] in a line: EchoMRI carcass body composition. It counts as in vivo, male C57BL/6J mice. The protocol: A second cohort of mice (n = 30) was acclimated to the laboratory conditions for 1 week prior to the onset of the experiment. Mice were housed individually and their body weight and food intake was recorded daily for a baseline period of 10 days. Given that ghrelin augments the intake of preferred diets ([28]), all mice received ad libitum access to a high-fat diet (60% of calories coming from fat), in addition to regular chow, to determine if CF801 altered dietary preference. Both chow and high-fat diet pellets were provided daily to mice ad libitum in pre-weighed amounts. Mice were then assigned to four different groups: non-injected control (NIC; n = 7), vehicle (0.9% saline) (VEH; n = 7), low-dose CF801 (11 μmol⋅kg^−1 – LD; n = 8) and high-dose CF801 (22 μmol⋅kg^−1 – HD; n = 8). Each day at 09:00 hours, mice were weighed and their food intake (both chow and high-fat diet) was recorded. After this, mice received an intraperitoneal injection of either CF801 or saline (except for the non-injected controls). Following the 13-day treatment period, half the animals in each group were sacrificed, while the remaining mice were allowed to recover from treatment. […] At this point, the remaining mice were sacrificed. Carcasses from all animals were frozen and stored at −80°C until they were scanned for body composition analyses. Immediately prior to analysis, all carcasses were thawed to room temperature and weighed in order to obtain measures relative to total carcass mass. EchoMRI carcass analyses were performed at Health Canada, Nutrition Research Division facilities using the EchoMRI-1100 (System ID EF-020) scanner. Each carcass was analyzed separately and measurements of total fat mass, total lean mass, and total water weight were obtained for each mouse.
Given these changes in metabolic efficiency as well as the decrease in RER observed in the calorimetry experiment, we hypothesized that CF801 treatment would result in less accumulation of fat. To determine if this was the case, we conducted EchoMRI analyses on every animal post-mortem to identify differences in body composition as a function between groups. […] Furthermore, there was a significant treatment effect on the fat mass:total mass ratio following the recovery period [F(1,15) = 9.245, p < 0.05; partial eta^2 = 0.716].

Assay [3] in a line: Indirect calorimetry, respiratory exchange ratio. In kind it is in vivo, male C57BL/6J mice. The conditions noted are these: 22 μmol⋅kg^−1 i.p. daily for a week, 4-h period following injection, n = 5 vs saline n = 5; t(5) = 3.457, p < 0.05. The protocol: Mice (n = 10) were housed individually and their body weight and food intake was recorded daily for a baseline period of 10 days. As in Experiment 1, all mice had ad libitum access to regular lab chow and a high-fat diet (60% of calories coming from fat). At the end of the baseline, mice were housed in metabolic chambers (TSE Systems) for 48 h to examine metabolic rate using indirect calorimetry prior to the onset of the drug treatment. While indirect calorimetry measures were obtained throughout the 48-h period, we only analyzed measurements in the last 24 h to allow the animals to adjust to the chambers. Mice were then assigned to one of two groups: vehicle (0.9% saline) (VEH; n = 5) and CF801 (22 μmol⋅kg^−1; n = 5). Each day at 09:00 hours, mice were weighed and their food intake (both chow and high-fat diet) was recorded, and then received an intraperitoneal injection of either CF801 or saline. Drug treatment continued for 16 days. On the eighth day, mice were again placed in the metabolic chambers for 48 h while still being monitored and injected with their respective treatment to determine differences in metabolism produced by the drug.
Given that treatment with CF801 decreased weight gain without altering caloric intake, we reasoned that perhaps CF801 was exerting its effects at the metabolic level. […]

Regarding GSAFLSPEHQRK KRRQRRR-NH2 [CF801], the “acyl ghrelin secretion, 100 μM” value in assay [1] (100 μM CF801, 24 h incubation, vs untreated control, n = 6 wells, p < 0.05) is given as “Significant decreases in secretion; also recorded: significant reductions in acyl ghrelin secretion”. The “acyl ghrelin secretion, 300 μM” value in assay [1] (300 μM CF801, 24 h incubation, vs untreated control, n = 6 wells, p < 0.05) is on record as “Significant decreases in secretion; also recorded: significant reductions in acyl ghrelin secretion”. Besides, the “acyl ghrelin secretion, 6-h incubation” value in assay [1] (6 h incubation, p > 0.05, preliminary, data not shown, even at highest concentration of 300 μM) is on record as “No significant effects; also recorded: no effect on acyl ghrelin secretion”. In assay [2] (11 μmol⋅kg^−1 i.p., 2 weeks after last treatment, vs VEH and NIC, p < 0.05), the “fat mass, low dose, after recovery” value is “lower fat mass than mice in the VEH and NIC”. The “fat mass:lean mass ratio, low dose vs NIC” value in assay [2] (11 μmol⋅kg^−1 i.p., following recovery period, p < 0.05) is given as “significantly lower fat mass:lean mass ratio”. Further, the “fat mass:lean mass ratio, low dose vs VEH” value in assay [2] (11 μmol⋅kg^−1 i.p., following recovery period, p = 0.058) is given as “tended to show a reduction in fat mass:lean mass ratio”. Besides, the “fat mass:total mass ratio, low dose vs NIC and VEH” value in assay [2] (11 μmol⋅kg^−1 i.p., following recovery period, p's < 0.05, overall F(1,15) = 9.245, partial eta^2 = 0.716) is “significantly lower fat mass:total mass ratios”. Further, the “fat mass, low dose, after treatment period” value in assay [2] (11 μmol⋅kg^−1 i.p., vs VEH, end of treatment, p > 0.05) was “lower fat mass compared to VEH-treated animals, but this was not statistically significant”. Also, the “total fat mass, high dose, after recovery” value in assay [2] (22 μmol⋅kg^−1 i.p., 2 weeks after treatment terminated, F(1,15) = 15.18, p < 0.05, partial eta^2 = 0.805) was “this decrease was more evident”. In addition, the “fat mass:lean mass ratio, high dose vs NIC and VEH” value in assay [2] (22 μmol⋅kg^−1 i.p., following recovery period, p < 0.05, overall F(1,15) = 7.735, partial eta^2 = 0.678) is “significantly lower fat mass:lean mass ratio”. Also, the “fat mass:total mass ratio, high dose vs NIC and VEH” value in assay [2] (22 μmol⋅kg^−1 i.p., following recovery period, p's < 0.05, overall F(1,15) = 9.245, partial eta^2 = 0.716) is “significantly lower fat mass:total mass ratios”. Besides, the “total fat mass, high dose, after treatment period” value in assay [2] (22 μmol⋅kg^−1 i.p., vs VEH, right after 13-day treatment, F(1,14) = 3.54, p > 0.05 as printed, partial eta^2 = 0.515) is listed as “significantly lower”. Also, the “fat mass:lean mass ratio, high dose vs low dose” value in assay [2] (22 vs 11 μmol⋅kg^−1, following recovery period, p > 0.05) is recorded as “no different than animals treated with LD CF801”. Also, in assay [2] (between groups, p > 0.05), the lean body mass result is given as “no differences between the groups” and the water mass result is on record as “no differences between the groups”. Besides, the “respiratory exchange ratio (RER)” value in assay [3] is listed as “significant decrease in RER”.
